“And” between values parts separate entries of the source, which are not always exact repeats. Identical values can stand only once. Like-named read-outs stand apart in the source and are kept apart here.
Assay: Pharmacokinetic analyses in mice (PO suspension, IV, SC)
Type: in vivo, mouse
Procedure: Female CD-1 mice as above were fasted for 2 h prior, and 4 h after dosing. […] […], 3 mice from each group were euthanized by CO2 inhalation, blood was collected by cardiac puncture into K2EDTA collection tubes, and protein was precipitated and analysed by LC/MS-MS for plasma concentrations of MBX-4132. Data were analysed using WinNonLin.
[…] At 0.083, 0.5, 1, 4, 8 and 24 h post dose, blood was collected from 3 mice/group by tail vein or facial bleed into K2EDTA collection tubes, and protein was precipitated and analysed by LC/MS-MS for plasma concentrations of MBX-4132. Sampling was performed serially, with each mouse contributing sample at all time points. Data were analysed using WinNonLin.

O=C(Nc1nnc(-c2ccc(F)cc2)o1)N1CCc2ccccc2C1 [MBX 4132]
MBX 4132 Concentrations in Mouse Plasma (IV (10 mg/kg), 0.083 hrs, individual animals, 10 mg/kg): 58700 ng/mL and 65700 ng/mL
MBX 4132 Concentrations in Mouse Plasma (IV (10 mg/kg), 0.5 hrs, individual animals, 10 mg/kg): 36200 ng/mL and 32000 ng/mL
MBX 4132 Concentrations in Mouse Plasma (IV (10 mg/kg), 1 hrs, individual animals, 10 mg/kg): 22900 ng/mL and 20200 ng/mL
MBX 4132 Concentrations in Mouse Plasma (IV (10 mg/kg), 4 hrs, individual animals, 10 mg/kg): 8580 ng/mL and 6390 ng/mL
MBX 4132 Concentrations in Mouse Plasma (IV (10 mg/kg), 8 hrs, individual animals, 10 mg/kg): 3980 ng/mL and 3290 ng/mL
MBX 4132 Concentrations in Mouse Plasma (IV (10 mg/kg), 24 hrs, individual animals, 10 mg/kg): 293 ng/mL and 149 ng/mL and 67.4 ng/mL
MBX 4132 Concentrations in Mouse Plasma (PO (10 mg/kg susp.), 0.25 hrs, individual animals, 10 mg/kg): 15389 ng/mL and 9102 ng/mL
MBX 4132 Concentrations in Mouse Plasma (PO (10 mg/kg susp.), 0.5 hrs, individual animals, 10 mg/kg): 16019 ng/mL and 12183 ng/mL
MBX 4132 Concentrations in Mouse Plasma (PO (10 mg/kg susp.), 1 hrs, individual animals, 10 mg/kg): 16437 ng/mL and 15902 ng/mL
MBX 4132 Concentrations in Mouse Plasma (PO (10 mg/kg susp.), 2 hrs, individual animals, 10 mg/kg): 10997 ng/mL and 18067 ng/mL
MBX 4132 Concentrations in Mouse Plasma (PO (10 mg/kg susp.), 4 hrs, individual animals, 10 mg/kg): 13379 ng/mL and 14121 ng/mL
MBX 4132 Concentrations in Mouse Plasma (PO (10 mg/kg susp.), 8 hrs, individual animals, 10 mg/kg): 11230 ng/mL and 9243 ng/mL
MBX 4132 Concentrations in Mouse Plasma (PO (10 mg/kg susp.), 24 hrs, individual animals): <62.5 ng/mL
MBX 4132 Concentrations in Mouse Plasma (PO (10 mg/kg), 0.083 hrs, individual animals, 10 mg/kg): 809 ng/mL and 1080 ng/mL and 1900 ng/mL
MBX 4132 Concentrations in Mouse Plasma (PO (10 mg/kg), 0.5 hrs, individual animals, 10 mg/kg): 881 ng/mL and 1440 ng/mL and 1770 ng/mL
MBX 4132 Concentrations in Mouse Plasma (PO (10 mg/kg), 1 hrs, individual animals, 10 mg/kg): 1490 ng/mL and 1730 ng/mL
MBX 4132 Concentrations in Mouse Plasma (PO (10 mg/kg), 4 hrs, individual animals, 10 mg/kg): 1960 ng/mL and 2880 ng/mL
MBX 4132 Concentrations in Mouse Plasma (PO (10 mg/kg), 8 hrs, individual animals, 10 mg/kg): 4940 ng/mL and 6040 ng/mL
MBX 4132 Concentrations in Mouse Plasma (PO (10 mg/kg), 24 hrs, individual animals, 10 mg/kg): 66.5 ng/mL and 26.0 ng/mL and 81.5 ng/mL
MBX 4132 Concentrations in Mouse Plasma (SC (10 mg/kg), 0.083 hrs, individual animals, 10 mg/kg): 738 ng/mL and 530 ng/mL and 1090 ng/mL
MBX 4132 Concentrations in Mouse Plasma (SC (10 mg/kg), 0.5 hrs, individual animals, 10 mg/kg): 3760 ng/mL and 4140 ng/mL
MBX 4132 Concentrations in Mouse Plasma (SC (10 mg/kg), 1 hrs, individual animals, 10 mg/kg): 3190 ng/mL and 3390 ng/mL
MBX 4132 Concentrations in Mouse Plasma (SC (10 mg/kg), 4 hrs, individual animals, 10 mg/kg): 2890 ng/mL and 2390 ng/mL
MBX 4132 Concentrations in Mouse Plasma (SC (10 mg/kg), 8 hrs, individual animals, 10 mg/kg): 2800 ng/mL and 2480 ng/mL
MBX 4132 Concentrations in Mouse Plasma (SC (10 mg/kg), 24 hrs, individual animals, 10 mg/kg): 599 ng/mL and 627 ng/mL
MBX 4132 Concentrations in Mouse Plasma (SC (25 mg/kg), 0.083 hrs, individual animals, 25 mg/kg): 1190 ng/mL and 2170 ng/mL
MBX 4132 Concentrations in Mouse Plasma (SC (25 mg/kg), 0.5 hrs, individual animals, 25 mg/kg): 3170 ng/mL and 5250 ng/mL and 6610 ng/mL
MBX 4132 Concentrations in Mouse Plasma (SC (25 mg/kg), 1 hrs, individual animals, 25 mg/kg): 5270 ng/mL and 5450 ng/mL
MBX 4132 Concentrations in Mouse Plasma (SC (25 mg/kg), 4 hrs, individual animals, 25 mg/kg): 3050 ng/mL and 3600 ng/mL
MBX 4132 Concentrations in Mouse Plasma (SC (25 mg/kg), 8 hrs, individual animals, 25 mg/kg): 3850 ng/mL and 4860 ng/mL
MBX 4132 Concentrations in Mouse Plasma (SC (25 mg/kg), 24 hrs, individual animals, 25 mg/kg): 2190 ng/mL and 1680 ng/mL
concentration at 24 h (female, CD-1, mouse, in vivo, iv, 10 mg/kg, IV (10 mg/kg), 24 hrs, mean of 3 animals, read-out: MBX 4132 Concentrations in Mouse Plasma, Mean): 0.17 µg/mL
concentration at 0.25 h (female, CD-1, mouse, in vivo, po, 10 mg/kg, PO (10 mg/kg susp.), 0.25 hrs, individual animals, read-out: MBX 4132 Concentrations in Mouse Plasma): 14.3 µg/mL
concentration at 0.25 h (female, CD-1, mouse, in vivo, po, 10 mg/kg, PO (10 mg/kg susp.), 0.25 hrs, mean of 3 animals, read-out: MBX 4132 Concentrations in Mouse Plasma, Mean): 12.9 µg/mL
concentration at 0.5 h (female, CD-1, mouse, in vivo, po, 10 mg/kg, PO (10 mg/kg susp.), 0.5 hrs, individual animals, read-out: MBX 4132 Concentrations in Mouse Plasma): 13.9 µg/mL
concentration at 0.5 h (female, CD-1, mouse, in vivo, po, 10 mg/kg, PO (10 mg/kg susp.), 0.5 hrs, mean of 3 animals, read-out: MBX 4132 Concentrations in Mouse Plasma, Mean): 14 µg/mL
concentration at 1 h (female, CD-1, mouse, in vivo, po, 10 mg/kg, PO (10 mg/kg susp.), 1 hrs, individual animals, read-out: MBX 4132 Concentrations in Mouse Plasma): 12.1 µg/mL
concentration at 1 h (female, CD-1, mouse, in vivo, po, 10 mg/kg, PO (10 mg/kg susp.), 1 hrs, mean of 3 animals, read-out: MBX 4132 Concentrations in Mouse Plasma, Mean): 14.8 µg/mL
concentration at 2 h (female, CD-1, mouse, in vivo, po, 10 mg/kg, PO (10 mg/kg susp.), 2 hrs, individual animals, read-out: MBX 4132 Concentrations in Mouse Plasma): 15 µg/mL
concentration at 2 h (female, CD-1, mouse, in vivo, po, 10 mg/kg, PO (10 mg/kg susp.), 2 hrs, mean of 3 animals, read-out: MBX 4132 Concentrations in Mouse Plasma, Mean): 14.7 µg/mL
concentration at 4 h (female, CD-1, mouse, in vivo, po, 10 mg/kg, PO (10 mg/kg susp.), 4 hrs, individual animals, read-out: MBX 4132 Concentrations in Mouse Plasma): 13.3 µg/mL
concentration at 4 h (female, CD-1, mouse, in vivo, po, 10 mg/kg, PO (10 mg/kg susp.), 4 hrs, mean of 3 animals, read-out: MBX 4132 Concentrations in Mouse Plasma, Mean): 13.6 µg/mL
concentration at 8 h (female, CD-1, mouse, in vivo, po, 10 mg/kg, PO (10 mg/kg susp.), 8 hrs, individual animals, read-out: MBX 4132 Concentrations in Mouse Plasma): 9.29 µg/mL

— PMC7979765, “trans-Translation inhibitors bind to a novel site on the ribosome and clear Neisseria gonorrhoeae in vivo” (Nature Communications, 2021)
